Assay type in all cases: cell-based
Assay [1] concerns Mannheimia haemolytica MH 10720 (154, BRD field isolate). Kind of assay: MIC, broth-microdilution (CLSI VET01-A4), strain MH 10720. The settings on record: Mannheimia haemolytica strain MH 10720, broth-microdilution; unit assumed. The method in brief:
(§1)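 Doubling dilution series in trays; visual read, MIC = lowest conc. with no visible turbidity; interpretation per CLSI VET01-S3.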

The test system of assay [2] is Mannheimia haemolytica MH 6374 (ATCC 33396, reference strain). Put plainly: MIC, broth-microdilution (CLSI VET01-A4), strain MH 6374. The following applies: Mannheimia haemolytica strain MH 6374, broth-microdilution; unit assumed. The method in brief:
as §1

For assay [3], the system named is Pasteurella multocida PM 6267 (P 2225 (L386), reference strain, mouse infection strain). Put plainly: MIC, broth-microdilution (CLSI VET01-A4), strain PM 6267. The following applies: Pasteurella multocida strain PM 6267, broth-microdilution; unit assumed. The method in brief:
as §1
In general terms: In broth dilution the organism is exposed to a series of concentrations in liquid medium.

Assay [4] relates to Mannheimia haemolytica MH 13065 (XB0446-6003.9, BRD field isolate). Kind of assay: MIC, broth-microdilution (CLSI VET01-A4), strain MH 13065. The settings on record: Mannheimia haemolytica strain MH 13065, broth-microdilution; unit assumed. The method in brief: as §1
The subject of assay [5] is Mannheimia haemolytica MH 13093 (XB0472-6014.1, BRD field isolate). Kind of assay: MIC, broth-microdilution (CLSI VET01-A4), strain MH 13093. The following applies: Mannheimia haemolytica strain MH 13093, broth-microdilution; unit assumed. The essentials: as §1
The subject of assay [6] is Mannheimia haemolytica MH 6357 (M7/2, reference strain, cattle infection strain). Kind of assay: MIC, broth-microdilution (CLSI VET01-A4), strain MH 6357. The settings on record: Mannheimia haemolytica strain MH 6357, broth-microdilution; unit assumed. The method in brief: as §1
In assay [7] the test system is Mannheimia haemolytica MH 12587 (1071, BRD field isolate, macrolide-resistance: erm+, E+). Put plainly: MIC, broth-microdilution (CLSI VET01-A4), strain MH 12587. The settings on record: Mannheimia haemolytica strain MH 12587, broth-microdilution; unit assumed. The essentials:
as §1

The test system of assay [8] is Pasteurella multocida PM 6391 (ATCC 43137, reference strain). Kind of assay: MIC, broth-microdilution (CLSI VET01-A4), strain PM 6391. The settings on record: Pasteurella multocida strain PM 6391, broth-microdilution; unit assumed. The method in brief: as §1
Assay [9] concerns Pasteurella multocida PM 10775 (080130003051, BRD field isolate). Put plainly: MIC, broth-microdilution (CLSI VET01-A4), strain PM 10775. The settings on record: Pasteurella multocida strain PM 10775, broth-microdilution; unit assumed. The essentials: as §1
Assay [10] deals with Pasteurella multocida PM 12080 (IV102277-0093, BRD field isolate). Put plainly: MIC, broth-microdilution (CLSI VET01-A4), strain PM 12080. The following applies: Pasteurella multocida strain PM 12080, broth-microdilution; unit assumed. The method in brief: as §1

Each structure is given as a SMILES string. Converted amounts (≈) assume the structure as drawn. Where only a bound is given, the exact number is not on record here.

`CC(C)(C(NC(=O)c1ccc(C#Cc2ccc(CNCc3ccccc3)cc2)cc1)C(=O)NO)[N+](=O)[O-]` (centres unmarked) [Compound 276] returned an MIC MH 10720 in [1] of at most 0.1 µg/mL. In assay [2], this molecule registered an MIC MH 6374 of 0.8 µg/mL (≈ 1.6 µM). In assay [3], this molecule returned an MIC PM 6267 of at most 0.1 µg/mL. In [4], this molecule had an MIC MH 13065 of 0.4 µg/mL (≈ 0.799 µM). Also, the MIC MH 13093 in [5] is 0.8 µg/mL (≈ 1.6 µM). The same molecule came in with an MIC MH 6357 in assay [6] of 0.8 µg/mL (≈ 1.6 µM). Moreover, the MIC MH 12587 in assay [7] was 0.8 µg/mL (≈ 1.6 µM). Further, in assay [8], the MIC PM 6391 was 0.4 µg/mL (≈ 0.799 µM). The molecule also yielded an MIC PM 10775 in assay [9] of at most 0.1 µg/mL. For the same molecule, in assay [10], the MIC PM 12080 was at most 0.1 µg/mL.

Turning to `CC(C)(C(NC(=O)c1ccc(C#Cc2ccc(CNCc3ccc(Cl)cc3)cc2)cc1)C(=O)NO)[N+](=O)[O-]` (centres unmarked) [Compound 277], in assay [1], the MIC MH 10720 worked out at 0.4 µg/mL (≈ 0.748 µM). Also, in assay [2], the MIC MH 6374 is 1.6 µg/mL (≈ 2.99 µM). The molecule further yielded an MIC PM 6267 in assay [3] of 0.4 µg/mL (≈ 0.748 µM). Also, the MIC MH 13065 in assay [4] was found to be 1.6 µg/mL (≈ 2.99 µM). Further, the MIC MH 13093 in assay [5] was found to be 1.6 µg/mL (≈ 2.99 µM). The molecule also registered an MIC MH 6357 in assay [6] of 1.6 µg/mL (≈ 2.99 µM). Further, in assay [7], the MIC MH 12587 amounted to 3.1 µg/mL (≈ 5.79 µM). Moreover, the MIC PM 6391 in assay [8] is 0.8 µg/mL (≈ 1.5 µM). In [9], this molecule gave an MIC PM 10775 of at most 0.1 µg/mL. For the same molecule, in assay [10], the MIC PM 12080 stood at 0.4 µg/mL (≈ 0.748 µM).

In turn, `CC(C)(C(NC(=O)c1ccc(C#Cc2ccc(CNCc3ccncc3)cc2)cc1)C(=O)NO)[N+](=O)[O-]` (centres unmarked) [Compound 278] had an MIC MH 10720 in assay [1] of at most 0.1 µg/mL. Besides, in [2], the MIC MH 6374 was determined as 0.4 µg/mL (≈ 0.798 µM). This molecule had an MIC PM 6267 in [3] of at most 0.1 µg/mL. This molecule had an MIC MH 13065 in assay [4] of 0.4 µg/mL (≈ 0.798 µM). In [5], this molecule displayed an MIC MH 13093 of 0.4 µg/mL (≈ 0.798 µM). This molecule also had an MIC MH 6357 in assay [6] of 0.4 µg/mL (≈ 0.798 µM). The same molecule returned an MIC MH 12587 in assay [7] of 0.8 µg/mL (≈ 1.6 µM). Also, the MIC PM 6391 in assay [8] was at most 0.1 µg/mL. In assay [9], this molecule returned an MIC PM 10775 of at most 0.1 µg/mL. In addition, the MIC PM 12080 in assay [10] is at most 0.1 µg/mL.

Consider `CC(C)(C(NC(=O)c1ccc(C#Cc2ccc(CNCc3ccc(C(F)(F)F)cc3)cc2)cc1)C(=O)NO)[N+](=O)[O-]` (centres unmarked) [Compound 279], for which the MIC MH 10720 in [1] was 1.6 µg/mL (≈ 2.81 µM). The MIC MH 6374 in [2] turned out to be 6.3 µg/mL (≈ 11.1 µM). The molecule also yielded an MIC PM 6267 in assay [3] of 0.4 µg/mL (≈ 0.704 µM). The molecule also returned an MIC MH 13065 in [4] of 6.3 µg/mL (≈ 11.1 µM). In assay [5], the MIC MH 13093 came to 6.3 µg/mL (≈ 11.1 µM). Also, the MIC MH 6357 in assay [6] stood at 3.1 µg/mL (≈ 5.45 µM). The MIC MH 12587 in assay [7] stood at 6.3 µg/mL (≈ 11.1 µM). The MIC PM 6391 in assay [8] was 1.6 µg/mL (≈ 2.81 µM). The molecule also had an MIC PM 10775 in assay [9] of 0.4 µg/mL (≈ 0.704 µM). In assay [10], this molecule yielded an MIC PM 12080 of 1.6 µg/mL (≈ 2.81 µM).

In assay [1], `C=CCNCc1ccc(C#Cc2ccc(C(=O)NC(C(=O)NO)C(C)(C)[N+](=O)[O-])cc2)cc1` (centres unmarked) [Compound 280] registered an MIC MH 10720 of at most 0.1 µg/mL. The MIC MH 6374 in [2] is 0.8 µg/mL (≈ 1.78 µM). In addition, the MIC PM 6267 in [3] is at most 0.1 µg/mL. The same molecule displayed an MIC MH 13065 in assay [4] of 1.6 µg/mL (≈ 3.55 µM). In [5], this molecule returned an MIC MH 13093 of 1.6 µg/mL (≈ 3.55 µM). The molecule further gave an MIC MH 6357 in assay [6] of 1.6 µg/mL (≈ 3.55 µM). Further, the MIC MH 12587 in assay [7] worked out at 3.1 µg/mL (≈ 6.88 µM). Further, the MIC PM 6391 in [8] is 0.4 µg/mL (≈ 0.888 µM). Besides, the MIC PM 10775 in assay [9] is at most 0.1 µg/mL. This molecule also had an MIC PM 12080 in assay [10] of 0.2 µg/mL (≈ 0.444 µM).

With `CC(C)(C(NC(=O)c1ccc(C#Cc2ccc(CNCc3ccccn3)cc2)cc1)C(=O)NO)[N+](=O)[O-]` (centres unmarked) [Compound 282], in assay [1], the MIC MH 10720 was at most 0.1 µg/mL. This molecule yielded an MIC MH 6374 in assay [2] of 0.8 µg/mL (≈ 1.6 µM). The molecule further had an MIC PM 6267 in assay [3] of 0.8 µg/mL (≈ 1.6 µM). Moreover, in assay [4], the MIC MH 13065 is 0.4 µg/mL (≈ 0.798 µM). The MIC MH 13093 in assay [5] stood at 1.6 µg/mL (≈ 3.19 µM). The same molecule registered an MIC MH 6357 in assay [6] of 0.8 µg/mL (≈ 1.6 µM). For the same molecule, the MIC MH 12587 in assay [7] came out at 1.6 µg/mL (≈ 3.19 µM). The MIC PM 6391 in [8] was 0.4 µg/mL (≈ 0.798 µM). In assay [9], the MIC PM 10775 stood at 0.4 µg/mL (≈ 0.798 µM). In [10], this molecule yielded an MIC PM 12080 of 0.2 µg/mL (≈ 0.399 µM).

Consider `Cc1ccc(CNCc2ccc(C#Cc3ccc(C(=O)NC(C(=O)NO)C(C)(C)[N+](=O)[O-])cc3)cc2)cc1` (centres unmarked) [Compound 283], for which the MIC MH 10720 in assay [1] stood at 0.2 µg/mL (≈ 0.389 µM). The molecule also had an MIC MH 6374 in assay [2] of 3.1 µg/mL (≈ 6.02 µM). Besides, in assay [3], the MIC PM 6267 came to 3.1 µg/mL (≈ 6.02 µM). For the same molecule, the MIC MH 13065 in [4] amounted to 1.6 µg/mL (≈ 3.11 µM). Besides, the MIC MH 13093 in [5] is 3.1 µg/mL (≈ 6.02 µM). For the same molecule, the MIC MH 6357 in assay [6] was 3.1 µg/mL (≈ 6.02 µM). The MIC MH 12587 in assay [7] is 6.3 µg/mL (≈ 12.2 µM). Further, the MIC PM 6391 in [8] was determined as 1.6 µg/mL (≈ 3.11 µM). In assay [9], this molecule displayed an MIC PM 10775 of 0.2 µg/mL (≈ 0.389 µM). In [10], the MIC PM 12080 stood at 0.8 µg/mL (≈ 1.55 µM).

In [1], `CC(C)(C(NC(=O)c1ccc(C#Cc2ccc(CNCc3ccc(F)cc3)cc2)cc1)C(=O)NO)[N+](=O)[O-]` (centres unmarked) [Compound 284] yielded an MIC MH 10720 of at most 0.1 µg/mL. In addition, the MIC MH 6374 in assay [2] is 0.8 µg/mL (≈ 1.54 µM). In addition, in assay [3], the MIC PM 6267 was 0.8 µg/mL (≈ 1.54 µM). The molecule further displayed an MIC MH 13065 in assay [4] of 0.2 µg/mL (≈ 0.386 µM). Moreover, the MIC MH 13093 in [5] was found to be 0.8 µg/mL (≈ 1.54 µM). In assay [6], this molecule registered an MIC MH 6357 of 0.4 µg/mL (≈ 0.771 µM). Besides, the MIC MH 12587 in [7] was 1.6 µg/mL (≈ 3.09 µM). The MIC PM 6391 in assay [8] is 0.4 µg/mL (≈ 0.771 µM). Further, in assay [9], the MIC PM 10775 is at most 0.1 µg/mL. Further, the MIC PM 12080 in [10] was at most 0.1 µg/mL.

The values are drawn from patent US11034650B2, “Compounds useful for treating a Mannheimia haemolytica or Histophilus somni infection” (Intervet Inc., priority 2016, dated 2021).
